Where two headings read alike, the source gives them in different places.

The target in data set [1] is T1, NR1/NR2B NMDA receptors (Rattus norvegicus, UniProt P35439+Q00960).
T1 construct: expressed in transfected cells; host or cells: HEK293 cells (ATCC CRL1573)
Particulars: pregnanolone sulfate 100 μmol·l^−1, recombinant NR1/NR2B receptors, n=5, Petrovic et al., 2005, cited from earlier work.

Data set [2] has as its system NMDA receptors on hipocampal neurones. Particulars: pregnanolone sulfate 100 μmol·l^−1; responses elicited by NMDA; −60 mV; n=5; Petrovic et al., 2005; cited from earlier work.
Data set [3] has as its target T1, NR1/NR2B NMDA receptors. As to the kind of experiment: Patch-clamp inhibition of glutamate-elicited currents in HEK293 cells transfected with NR1-1a/NR2B. Particulars: for IC50: calculated from relative inhibition with Hill's coefficient 1.2; for IC50 / Relative inhibition effect (%): 5 cells; for Relative inhibition effect (%): 1 mmol·l^−1 glutamic acid. Type of data set: cell-based. The procedure:
The membrane potentials were maintained at −60 mV or +60 mV. Patch-clamp technique was used to record the currents from cultivated HEK293 cells with transfected NR1/NR2B NMDA receptors. Relative inhibition elicited by the compound from the example 2 was calculated from the formula (1−a/b)*100(%).
Degree of activated NMDA receptor inhibition by steroid cationic compounds was measured in vitro electrophysiologically on cultivated HEK293 cells (Human Embryonic Kidney 293 cells) 24-48 h after the transfection with DNA plasmids, coding NR1-1a and NR2B subunit of NMDA receptor. Transfected cells were identified by means of fluorescent green protein (GFP) fluorescence. Its genus was transfected together with the both receptor subunit genes.
Steroid-containing solutions were prepared from fresh solution (20 mmol·l^−1, of steroid dissolved in dimethyl-sulfoxide, DMSO), which was added to the extracellular solution containing 1 mmol·l^−1 glutamic acid and 10 μmol·l^−1 of glycine. Same concentrations of DMSO were added to all other extracellular solutions.
Current responses produced by extracellular application of glutamic acid solution (1 mmol·l^−1) were measured from the whole cell by patch-clamp technique, which is used for the study of transport of charged particles through model and also natural biological membranes. The currents were measured at membrane potential maintained at −60 mV and +60 mV.
HEK293 cells (American Type Culture Collection, ATTC No. CRL1573, Rockville, Md.) were cultivated in Opti-MEM® I media (Invitrogen) with addition of 5% fetal bovine serum at 37° C. and transfected with NR1-1a/NR2B/GFP plasmids, as described in the scientific literature (Cais et al., 2008). Same amounts (0.3 μg) of cDNA coding NR1, NR2 and GFP (green fluorescent protein) (pQBI 25, Takara, Japan) were mixed with 0.9 μl of Matra-A Reagent (IBA, Göttingen, Germany) and added to confluent HEK293 cells cultivated in v 24-pit cultivating plate. After trypsination, the cells were re-suspended in Opti-MEM® I containing 1% fetal bovine serum. Subsequently, 20 mmol·l^−1 MgCl2, 1 mmol D,L-2-amino-5-phosphonopentanoic acid, 3 mmol·l^−1 kynurenic acid was added to the mixture and cells were inoculated on the polylysine-coated glass plates having 25 mm in diameter. The following genes coding NMDA receptor subunits were used for transfection: NR1-1a (GenBank accession no. U08261) and NR2B (GenBank accession no. M91562).
HEK293 Cultured cells were used for electrophysiological investigations with a latency of 16-40 h after transfection. Whole-cell currents were measured by patch-clamp amplifier (Axopatch 1D; Axon Instruments, Inc. Foster City, USA) after capacitance and serial resistance (<10 MΩ) compensation to 80-90%. Agonist-induced responses were filtered to 1 kHz (8-pole Bessel filter; Frequency Devices, Haverhill, USA), digitized with sampling frequency of 5 kHz and analyzed by pClamp version 9 software (Axon Instruments, USA). Micropipettes made of borosilicate glass were filled with intracellular solution, containing 125 mmol·l^−1 D-glukonic acid, 15 mmol·l^−1 cesium chloride, 5 mmol·l^−1 EGTA, 10 mmol·l^−1 HEPES buffer, 3 mmol·l^−1 magnesium chloride, 0.5 mmol·l^−1 calcium chloride and 2 mmol·l^−1 magnesium-salt of ATP (pH adjusted to 7.2 by cesium hydroxide solution). Extracellular solution (ECS) contained 160 mmol·l^−1 sodium chloride, 2.5 mmol·l^−1 potassium chloride, 10 mmol·l^−1 HEPES, 10 mmol·l^−1 glucose, 0.2 mmol·l^−1 EDTA a 0.7 mmol·l^−1 calcium chloride (pH adjusted to 7.3 by sodium hydroxide solution). Glycine was added to both testing and control solution.

For a further data set, the system named is mice strain B6. The data set can be described thus: Spontaneous locomotor activity in the open-field test. Type of data set: in vivo. The note with it: 10 mg/kg subcutaneously in cyclodextrin, 60 min session. The procedure: Animals were tracked with iTrack (Biosignal group, USA) and total path during this session was evaluated. The pregnanolone argininate was applied subcutaneously (dissolved in cyclodextrin) prior to behavioral observations at doses 10 mg/kg; control animals were injected with saline and cyclodextrin.

The test system of the next data set is male mice strain B6. As to the kind of experiment: Anesthetic effect after i.p. injection. The note with it: 100 mg/kg i.p. in β-cyclodextrine. Type of data set: in vivo. The procedure:
Anesthetic effect of 3α5β pregnanolon argininate was tested on 2-month-old male mice strain B6. Animals were randomly assigned to 3 groups per 7 animals each. The first group was injected i.p. with saline, the second group received i.p. cyclodextrine, the third group obtained received the pregnanolon argininate at a dose 100 mg/kg (dissolved in β-cyclodextrine).

The next data set has as its system Long-Evans male rats. The data set can be described thus: Carousel maze (active allothetic place avoidance, AAPA): locomotion and cognitive function. Type of data set: in vivo. The procedure:
Effect of pregnanolone argininate and nitrate and action of dizocilpine (a non-competitive antagonist of NMDA receptors; standardly used as positive control and referred hereafter as dizocilpine) on the behavior of rats in Carousel maze (active allothetic place avoidance (AAPA)), a spatial task requiring spatial orientation and cognitive functions
The effect of compounds on cognitive behaviors and locomotion was assessed using Carousel maze (active allothetic place avoidance (AAPA) task), which requires intact hippocampi and ability of animals to navigate in space using distinct reference frames (spatial navigation and “cognitive coordination”) (Wesierska et al., 2005) and it also allows measuring changes in the accompanying locomotor activity. AAPA task training involves animals trained to move over a slowly rotating uniform circular arena, on which a prohibited sector is defined, entering which is punished by a mild footshock. A shock sector and its position can be determined solely by its relationship to distal orienting cues in the room (Stuchlik et al., 2008).
This task is highly dependent upon hippocampal formation, with unilateral reversible ablation of this structure with TTX leading to avoidance deficit (Cimadevilla et al., 2001). Animals solving this task should walk in a direction opposite to arena rotation; otherwise it would be repeatedly brought to a fixed sector by arena rotation. We conducted 4 acquisition session of AAPA task, during which the sector location was always reinforced and remained stable throughout the training. Each session lasted 20 min.
The effect was tested on 2-month-old Long-Evans male rats. Control animals obtained cyklodextrine (s.c.), experimental groups received subcutaneous (s.c.) injections of the compound from example 2 at doses 1 mg/kg (dissolved in cyclodextrin). Intraperitonal application of dizocilpine (a non-competitive NMDA receptor antagonist; showing significant neuroprotective activity but exerting cognition-disturbing and psychotomimetic effects) was used as a positive control. Dizocilpine was applied at doses 0.15 mg/kg. It is worth noting that dizocilpine (albeit its experimental neuroprotective activity) is often used to model schizophrenia-like behaviors in […] and it has been repeatedly shown to exert a dose-dependent learning deficit and hyperlocomotion.
Locomotor activity of animals was assessed in the AAPA as total distance traveled in the coordinate frame of the arena (without passive rotation) in each 20-min session.
Another parameter, which can be measured and which brings a spatial aspect to behavioral analysis, is number of entrances into prohibited sector (occasionally termed “number of errors”).

Where [4] appears, read: dizocilpine 0.15 mg/kg intraperitoneal, positive control.

T1 sequence (Q00960 27-1482, other chains not shown): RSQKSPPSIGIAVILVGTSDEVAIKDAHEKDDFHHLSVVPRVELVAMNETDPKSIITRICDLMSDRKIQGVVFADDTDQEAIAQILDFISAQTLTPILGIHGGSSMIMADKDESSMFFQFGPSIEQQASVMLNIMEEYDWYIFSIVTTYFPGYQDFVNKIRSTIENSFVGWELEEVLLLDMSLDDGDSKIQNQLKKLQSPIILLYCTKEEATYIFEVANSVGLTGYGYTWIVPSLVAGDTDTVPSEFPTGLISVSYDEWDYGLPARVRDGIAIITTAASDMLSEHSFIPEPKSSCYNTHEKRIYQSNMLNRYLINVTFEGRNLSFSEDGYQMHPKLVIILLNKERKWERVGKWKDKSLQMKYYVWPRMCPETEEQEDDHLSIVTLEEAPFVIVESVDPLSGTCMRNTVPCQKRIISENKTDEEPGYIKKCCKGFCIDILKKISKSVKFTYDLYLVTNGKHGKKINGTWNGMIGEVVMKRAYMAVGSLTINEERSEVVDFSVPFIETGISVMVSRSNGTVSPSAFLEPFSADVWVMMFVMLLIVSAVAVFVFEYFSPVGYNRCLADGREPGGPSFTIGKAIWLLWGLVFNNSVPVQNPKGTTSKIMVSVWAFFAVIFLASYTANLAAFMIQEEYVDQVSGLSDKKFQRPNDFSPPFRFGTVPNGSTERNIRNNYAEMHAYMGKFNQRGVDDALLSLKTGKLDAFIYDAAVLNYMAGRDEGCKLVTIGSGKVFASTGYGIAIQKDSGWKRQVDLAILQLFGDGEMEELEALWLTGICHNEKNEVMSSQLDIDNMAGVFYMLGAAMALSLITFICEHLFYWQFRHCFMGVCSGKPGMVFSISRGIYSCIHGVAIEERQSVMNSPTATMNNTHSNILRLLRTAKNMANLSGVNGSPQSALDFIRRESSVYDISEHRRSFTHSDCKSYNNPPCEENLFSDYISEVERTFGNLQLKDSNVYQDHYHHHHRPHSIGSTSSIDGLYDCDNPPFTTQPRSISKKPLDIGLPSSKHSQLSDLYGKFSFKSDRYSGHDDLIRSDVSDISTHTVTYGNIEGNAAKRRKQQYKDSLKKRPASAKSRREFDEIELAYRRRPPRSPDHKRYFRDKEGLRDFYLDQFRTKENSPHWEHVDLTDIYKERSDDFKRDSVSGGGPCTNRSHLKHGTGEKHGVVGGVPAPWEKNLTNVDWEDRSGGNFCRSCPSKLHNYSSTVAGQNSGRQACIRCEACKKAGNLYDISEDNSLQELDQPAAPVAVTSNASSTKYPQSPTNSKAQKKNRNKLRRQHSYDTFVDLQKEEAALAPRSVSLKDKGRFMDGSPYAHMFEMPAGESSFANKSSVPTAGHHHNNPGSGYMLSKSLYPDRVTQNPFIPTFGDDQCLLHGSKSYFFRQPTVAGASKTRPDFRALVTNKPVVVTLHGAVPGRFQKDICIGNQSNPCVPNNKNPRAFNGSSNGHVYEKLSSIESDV

“5β-pregnanolon-3α-yl-sulfate [Pregnanolone sulfate]”: the “Relative inhibition effect (%)” value on NR1/NR2B NMDA receptors [1] (listed as 5β-pregnanolon-3α-yl-sulfate) is given as 67%; on NR1/NR2B NMDA receptors [1] (listed as pregnanolone sulfate) it was 67.2±8.2%. The mean inhibition effect in data set [2] is listed as 71.3±5.0%. The half-inhibitory concentration (IC50) at NR1/NR2B NMDA receptors [3] is 55 µM.

For the compound `CC(=O)O.CC(=O)O.CC(=O)[C@H]1CC[C@H]2[C@@H]3CC[C@@H]4C[C@H](OC(=O)[C@@H](N)CCCNC(=N)N)CC[C@]4(C)[C@H]3CC[C@]12C` [Example 2, 20-Oxo-5β-pregnan-3α-yl L-argininate diacetate salt], the “spontaneous locomotor activity (total path)” value with mice strain B6 is on record as “did not significantly alter”. Further, the “time after injection to anesthesia” value in the data set with male mice strain B6 lay within 5 to 20 min. The “time after injection to decreased locomotor activity” value in the data set with male mice strain B6 lay in the range of 3 to 15 min. For the same compound, in the data set with male mice strain B6, the “time to spontaneous awakening” value was in the range of 1 to 3 h. The “locomotor activity: total distance per session in AAPA” value with Long-Evans male rats (compound from example 2 1 mg/kg s.c. in cyclodextrin (nitrate dose not given), 20-min session, vs cyclodextrin controls, diacetate salt, 1 mg/kg) is “no significant effect”; in the data set with Long-Evans male rats (compound from example 2 1 mg/kg s.c. in cyclodextrin (nitrate dose not given), 20-min session, vs cyclodextrin controls, listed as pregnanolone argininate, diacetate salt, 1 mg/kg) it was “failed to exhibit either decrease or increase”. The “number of entrances into shock sector (spatial cognition)” value (“number of entrances into shock sector” below) in the data set on Long-Evans male rats (compound from example 2 1 mg/kg s.c. in cyclodextrin (nitrate dose not given), vs cyclodextrin controls, diacetate salt, 1 mg/kg) is “no significant effect”; with Long-Evans male rats (compound from example 2 1 mg/kg s.c. in cyclodextrin (nitrate dose not given), vs cyclodextrin controls, listed as pregnanolone argininate, diacetate salt, 1 mg/kg), “do not caused worsening”. Further, the “dependence of average inhibition on the maintained membrane potential” value at NR1/NR2B NMDA receptors [3] (10 μmol·l^−1, FIG. 1B) is reported as “independence”. In addition, the “reversibility of inhibition of the current response” value at NR1/NR2B NMDA receptors [3] (10 μmol·l^−1 applied simultaneously with 1 mmol·l^−1 glutamic acid, −60 mV or +60 mV, FIG. 1A) is listed as “reversible inhibition”. Besides, on NR1/NR2B NMDA receptors [3], the half-inhibitory concentration (IC50) is 5.3 µM. Besides, at NR1/NR2B NMDA receptors [3] (steroid 10 μmol·l^−1), the “Relative inhibition effect (%)” value is 69.2 ± 9.6%.

In the case of `CC(=O)[C@H]1CC[C@H]2[C@@H]3CC[C@@H]4C[C@H](OC(=O)CN(C)C(=N)N)CC[C@]4(C)[C@H]3CC[C@]12C.Cl` [Example 5, 20-Oxo-5β-pregnan-3α-yl 2-(methylguanidino) acetate hydrochloride], the IC50 at NR1/NR2B NMDA receptors [3] is 3.3 ± 0.7 µM. Besides, the “Relative inhibition effect (%)” value at NR1/NR2B NMDA receptors [3] (steroid 10 μmol·l^−1) is on record as 79.2 ± 4.2%.

Take `CC(=O)[C@H]1CC[C@H]2[C@@H]3CC[C@@H]4C[C@H](OC(=O)CCC[N+](C)(C)C)CC[C@]4(C)[C@H]3CC[C@]12C.[Cl-]` [Example 6, 20-Oxo-5β-pregnan-3α-yl 4-(trimethylammonium) butanoate chloride]: the IC50 on NR1/NR2B NMDA receptors [3] is 5.9 µM. Further, the “Relative inhibition effect (%)” value on NR1/NR2B NMDA receptors [3] (steroid 10 μmol·l^−1) was found to be 65.4 ± 3.4%.

Turning to `CCC(CCC(=O)O[C@@H]1CC[C@@]2(C)[C@H](CC[C@@H]3[C@@H]2CC[C@]2(C)[C@@H](C(C)=O)CC[C@@H]32)C1)[N+](C)(C)C.[Cl-]` (stereo partly drawn) [Example 7, 20-Oxo-5β-pregnan-3α-yl 4-(trimethylammonium) hexanoate chloride], the IC50 on NR1/NR2B NMDA receptors [3] is 23.6 µM. Besides, on NR1/NR2B NMDA receptors [3] (steroid 100 μmol·l^−1, −60 mV), the “Relative inhibition effect (%)” value was 85.6 +/− 2.3%.

For `CC(=O)[C@H]1CC[C@H]2[C@@H]3CC[C@@H]4C[C@H](OC(=O)C[N+](C)(C)C)CC[C@]4(C)[C@H]3CC[C@]12C.[Cl-]` [Example 8, 20-Oxo-5β-pregnan-3α-yl-2-(trimethylammonium) acetate hydrochloride], the half-inhibitory concentration (IC50) on NR1/NR2B NMDA receptors [3] is 22.4 µM. The “Relative inhibition effect (%)” value on NR1/NR2B NMDA receptors [3] (steroid 30 μmol·l^−1, −60 mV) is given as 57.0 ± 9.6%.

In the case of `CC(=O)C1CCC2C3CC[C@@H]4C[C@H]([N+](C)(C)C)CC[C@]4(C)C3CC[C@]12C.[Cl-]` (stereo partly drawn) [Example 10, 3-(Trimethylammonium)-5β-pregnan-20-one chloride], the melting point is 237 to 240 °C (dec.). Moreover, the IC50 at NR1/NR2B NMDA receptors [3] was 107 µM. Further, the “Relative inhibition effect (%)” value at NR1/NR2B NMDA receptors [3] (steroid 100 μmol·l^−1, −60 mV) came to 69.2 ± 9.6%.

In the case of `C[C@]12N[C@H](Cc3ccccc31)c1ccccc12` [dizocilpine, reference compound], in the data set on Long-Evans male rats (setting [4]), the “locomotor activity: total distance per session in AAPA” value is reported as “stimulated the locomotor activity” and the “number of entrances into shock sector” value is on record as “dose-dependently disrupted”. Besides, the “number of entrances into shock sector” value in the data set on Long-Evans male rats (dizocilpine 0.15 mg/kg intraperitoneal, positive control, listed as MK-801) is “disrupts”.

In general, IC50 refers to the concentration that gives 50% inhibition. One may read the melting point as the temperature, or range, at which the solid turns liquid.

The record behind these values is patent publication US20130338383A1, “PREGNANOLONE DERIVATIVES SUBSTITUTED IN 3ALPHA-POSITION WITH THE CATIONIC GROUP, METHOD OF THEIR PRODUCTION, USAGE AND PHARMACEUTICAL PREPARATION INVOLVING THEM” (FYZIOLOGICKY USTAV AKADEMIE VED CESKE REPUBLICKY, V.V.I., priority 2011, published 2013).
